PubChem BioAssay AID296 (DTP/NCI, 2004)
Inconclusive results are not listed.

Test system: MX-1 breast xenograft, nude mice, tumor weight T/C
Assay: NCI In Vivo Anticancer Drug Screen. Data for tumor model Human Mammary Carcinoma MX-1 Xenograft (intrarenal inoculation) in NU/NU Swiss (nude) mice
Details: endpoint: mean tumor weight change, schedule: Q04DX003 (sc), higher = larger tumour
Outline: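 Antitumour effect measured in vivo against vehicle controls, expressed as T/C.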

[1] = dose: 300.0 mg/kg/injection, vehicle: saline with Tween-80
[2] = dose: 600.0 mg/kg/injection, vehicle: saline with Tween-80
[3] = dose: 1200.0 mg/kg/injection, vehicle: saline with Tween-80
[4] = dose: 100.0 mg/kg/injection, vehicle: saline with Tween-80
[5] = dose: 37.5 mg/kg/injection, vehicle: saline with Tween-80
[6] = dose: 150.0 mg/kg/injection, vehicle: Klucel (hydroxypropylcellulose) (HPC)
[7] = dose: 300.0 mg/kg/injection, vehicle: Klucel (hydroxypropylcellulose) (HPC)
[8] = dose: 600.0 mg/kg/injection, vehicle: Klucel (hydroxypropylcellulose) (HPC)
[9] = dose: 1200.0 mg/kg/injection, vehicle: Klucel (hydroxypropylcellulose) (HPC)

## CC(=O)OCC1(C)NC(=O)c2ccccc2O1 (stereo unspecified)
[1]
  T/C: 108 % of control
[2]
  T/C: 108 % of control
[3]
  T/C: 156 % of control
dose: 2400.0 mg/kg/injection, vehicle: saline with Tween-80
  T/C: 85 % of control

## C=CCNc1nc2c(s1)CCc1cc(OC)c(OC)cc1-2
[1]
  T/C: 92 % of control
[2]
  T/C: 96 % of control
[3]
  T/C: 80 % of control

## CN(CCN(C)C(=O)CCOS(C)(=O)=O)C(=O)CCOS(C)(=O)=O
dose: 50.0 mg/kg/injection, vehicle: saline with Tween-80
  T/C: 41 % of control
dose: 50.0 mg/kg/injection, vehicle: suspension in saline
  T/C: 16 % of control
[4]
  T/C: 1 % of control
dose: 100.0 mg/kg/injection, vehicle: suspension in saline
  T/C: -86 % of control
dose: 200.0 mg/kg/injection, vehicle: saline with Tween-80
  T/C: -65 % of control
dose: 200.0 mg/kg/injection, vehicle: suspension in saline
  T/C: -100 % of control
dose: 400.0 mg/kg/injection, vehicle: suspension in saline
  T/C: -100 % of control

## CCCCCCCCCCCCCCCC(=O)OCC1OC(n2ccc(N)nc2=O)C(O)C1O (stereo unspecified)
[5]
  T/C: 30 % of control
[2]
  T/C: 11 % of control

## N/C(=N\OC(=O)Nc1ccc(CSc2ccc(Cl)cc2)o1)c1ccccn1
dose: 9.38 mg/kg/injection, vehicle: saline
  T/C: 62 % of control
dose: 18.75 mg/kg/injection, vehicle: saline
  T/C: 66 % of control
dose: 37.5 mg/kg/injection, vehicle: saline
  T/C: 40 % of control
[6]
  T/C: 102 % of control
[7]
  T/C: 97 % of control

## OC1CCCC2CCCNC12 (stereo unspecified)
[5]
  T/C: 76 % of control
dose: 75.0 mg/kg/injection, vehicle: saline with Tween-80
  T/C: 85 % of control

## Cc1c2ccccc2cc2cccc[n+]12
dose: 7.5 mg/kg/injection, vehicle: saline
  T/C: 74 % of control
dose: 15.0 mg/kg/injection, vehicle: saline
  T/C: 88 % of control
dose: 30.0 mg/kg/injection, vehicle: saline
  T/C: 67 % of control

## CCC1=C[C@H]2CN(CCc3c([nH]c4ccccc34)[C@@](C(=O)OC)(c3cc4c(cc3OC)N(C)[C@H]3[C@@](O)(C(=O)NC)[C@H](OC(C)=O)[C@]5(CC)C=CCN6CC[C@]43[C@@H]65)C2)C1
dose: 1.0 mg/kg/injection, vehicle: water
  T/C: 48 % of control
dose: 2.0 mg/kg/injection, vehicle: water
  T/C: 45 % of control

## Nc1nnc[se]1
[4]
  T/C: 54 % of control
dose: 1600.0 mg/kg/injection, vehicle: saline with Tween-80
  T/C: 74 % of control

## C=C(c1ccc(OC)c(OC)c1)c1nccc2cc(OC)c(OC)cc12
[6]
  T/C: 91 % of control
[7]
  T/C: 71 % of control
[8]
  T/C: 89 % of control
[9]
  T/C: 54 % of control

## CC(=O)OCC1OC(n2ncc(=O)[nH]c2=O)C(OC(C)=O)C1OC(C)=O (stereo unspecified)
dose: 150.0 mg/kg/injection, vehicle: suspension in saline
  T/C: 67 % of control
dose: 300.0 mg/kg/injection, vehicle: suspension in saline
  T/C: 112 % of control
dose: 600.0 mg/kg/injection, vehicle: suspension in saline
  T/C: 78 % of control

## C[C@]12C=CC(=O)C=C1CC[C@@H]1[C@@H]2C(=O)C[C@@]2(C)[C@H]1CC[C@]2(O)C(=O)CO
[7]
  T/C: 40 % of control
[8]
  T/C: 73 % of control
[9]
  T/C: 44 % of control
dose: 2400.0 mg/kg/injection, vehicle: Klucel (hydroxypropylcellulose) (HPC)
  T/C: 29 % of control
